Source: US9216999B2, “Substituted pyrrolo[2,3-h][1,6]naphthyridines and compositions thereof as JAK inhibitors” (priority 2011, dated 2015)
Counter-ions that a name gives are not always drawn. Like-named read-outs stand apart in the source and are kept apart here.

Tests used:
Format in all cases: biochemical
Tyk2 = Tyk2 (Homo sapiens (Human), UniProt P29597); experiment: Enzyme assay (Assay Example^a 1), Tyk2; conditions: ATP 100 μM
JAK1 = JAK1 (Homo sapiens (Human), UniProt P23458); experiment: Enzyme assay (Assay Example^a 1), JAK1; conditions: ATP 100 μM
JAK3 = JAK3 (Homo sapiens (Human), UniProt P52333); experiment: Enzyme assay (Assay Example^a 1), JAK3
JAK3, sequence (P52333 whole entry): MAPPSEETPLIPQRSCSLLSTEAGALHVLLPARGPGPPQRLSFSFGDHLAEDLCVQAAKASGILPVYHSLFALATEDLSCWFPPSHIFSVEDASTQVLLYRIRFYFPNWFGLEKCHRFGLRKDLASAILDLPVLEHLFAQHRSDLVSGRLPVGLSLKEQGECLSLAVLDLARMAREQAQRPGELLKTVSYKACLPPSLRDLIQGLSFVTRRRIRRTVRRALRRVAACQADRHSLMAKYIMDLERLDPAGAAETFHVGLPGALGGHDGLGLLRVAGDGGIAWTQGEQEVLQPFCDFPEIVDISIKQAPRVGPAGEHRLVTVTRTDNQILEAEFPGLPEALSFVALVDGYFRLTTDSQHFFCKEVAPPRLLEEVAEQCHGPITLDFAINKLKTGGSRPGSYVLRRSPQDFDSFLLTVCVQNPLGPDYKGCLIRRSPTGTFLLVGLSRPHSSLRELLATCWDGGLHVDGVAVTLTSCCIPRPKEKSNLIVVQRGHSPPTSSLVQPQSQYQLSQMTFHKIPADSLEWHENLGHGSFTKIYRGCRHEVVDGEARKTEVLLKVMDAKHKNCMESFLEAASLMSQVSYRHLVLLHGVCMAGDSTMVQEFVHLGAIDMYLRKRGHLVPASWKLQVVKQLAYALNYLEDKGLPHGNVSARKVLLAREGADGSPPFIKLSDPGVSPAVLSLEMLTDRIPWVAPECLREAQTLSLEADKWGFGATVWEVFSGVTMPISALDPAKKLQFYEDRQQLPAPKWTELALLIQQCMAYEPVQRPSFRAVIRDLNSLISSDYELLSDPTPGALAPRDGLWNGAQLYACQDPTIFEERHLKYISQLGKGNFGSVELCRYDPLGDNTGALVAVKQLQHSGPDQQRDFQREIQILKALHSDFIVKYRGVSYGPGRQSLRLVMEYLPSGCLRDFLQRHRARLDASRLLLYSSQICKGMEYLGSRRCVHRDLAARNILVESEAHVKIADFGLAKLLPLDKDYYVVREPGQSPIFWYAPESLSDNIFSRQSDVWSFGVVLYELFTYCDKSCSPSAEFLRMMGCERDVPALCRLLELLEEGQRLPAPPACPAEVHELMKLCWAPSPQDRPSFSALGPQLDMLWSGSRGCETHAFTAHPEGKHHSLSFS

JAK2 = JAK2 (Homo sapiens (Human), UniProt O60674); experiment: Enzyme assay (Assay Example^a 1), JAK2

Tyk2, sequence (P29597 whole entry): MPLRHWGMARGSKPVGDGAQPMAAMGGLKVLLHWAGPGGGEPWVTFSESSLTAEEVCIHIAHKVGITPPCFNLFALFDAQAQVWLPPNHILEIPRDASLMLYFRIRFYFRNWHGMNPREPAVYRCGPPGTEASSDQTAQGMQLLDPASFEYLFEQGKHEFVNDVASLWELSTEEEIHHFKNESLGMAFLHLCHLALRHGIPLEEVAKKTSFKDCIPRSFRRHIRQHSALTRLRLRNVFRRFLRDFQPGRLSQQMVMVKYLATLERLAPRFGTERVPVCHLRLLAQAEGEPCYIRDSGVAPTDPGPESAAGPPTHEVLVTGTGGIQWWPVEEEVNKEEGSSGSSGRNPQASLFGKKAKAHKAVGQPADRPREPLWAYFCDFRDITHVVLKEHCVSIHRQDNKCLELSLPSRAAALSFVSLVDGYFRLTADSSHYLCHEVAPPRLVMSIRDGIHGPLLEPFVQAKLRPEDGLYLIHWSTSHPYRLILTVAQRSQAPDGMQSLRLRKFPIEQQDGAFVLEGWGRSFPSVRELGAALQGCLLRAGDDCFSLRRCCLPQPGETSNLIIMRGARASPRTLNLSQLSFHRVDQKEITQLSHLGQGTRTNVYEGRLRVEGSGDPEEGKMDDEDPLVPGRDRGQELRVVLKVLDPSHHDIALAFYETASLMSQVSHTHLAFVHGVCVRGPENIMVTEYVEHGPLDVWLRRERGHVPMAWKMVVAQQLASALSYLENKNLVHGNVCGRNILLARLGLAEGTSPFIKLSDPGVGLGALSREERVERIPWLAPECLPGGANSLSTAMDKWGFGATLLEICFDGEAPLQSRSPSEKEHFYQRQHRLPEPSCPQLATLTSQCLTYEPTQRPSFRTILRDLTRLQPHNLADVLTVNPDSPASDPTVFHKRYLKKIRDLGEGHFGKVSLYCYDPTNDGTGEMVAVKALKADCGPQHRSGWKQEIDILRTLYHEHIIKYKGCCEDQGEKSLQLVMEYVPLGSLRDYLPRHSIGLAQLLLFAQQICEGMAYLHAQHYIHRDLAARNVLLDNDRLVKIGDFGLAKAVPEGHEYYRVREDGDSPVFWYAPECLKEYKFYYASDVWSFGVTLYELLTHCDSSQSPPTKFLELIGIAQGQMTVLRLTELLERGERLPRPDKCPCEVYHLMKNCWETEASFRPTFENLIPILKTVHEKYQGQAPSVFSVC

Row | Structure (SMILES) | IC50 (Tyk2; Table^a 154) | IC50 (JAK1; Table^a 154) | IC50 (JAK3; ATP 100 μM, Table^a 154) | IC50 (JAK2; ATP 100 μM, Table^a 154) | IC50 (Tyk2) | IC50 (JAK1) | IC50 (JAK3; ATP 100 μM) | IC50 (JAK2; ATP 100 μM) | IC50 (JAK2) | IC50 (JAK3)
1 | O=C1NCCN1CCNC[C@H]1CC[C@H](c2nnn3cnc4[nH]ccc4c23)CC1 [compound 191, 1-[2-({[trans-4-(7H-pyrrolo[3,2-e][1,2,3]triazolo[1,5-c]pyrimidin-1-yl)cyclohexyl]methyl}amino)ethyl]imidazolidin-2-one] | 0.18 µM | 0.01 µM | 0.92 µM | 0.084 µM | – | – | – | – | – | –
2 | c1nc(CCNC[C@H]2CC[C@H](c3nnn4cnc5[nH]ccc5c34)CC2)c[nH]1 [compound 192, N-{[trans-4-(7H-pyrrolo[3,2-e][1,2,3]triazolo[1,5-c]pyrimidin-1-yl)cyclohexyl]methyl}-2-(1H-imidazol-4-yl)ethanamine hydrochloride] | 0.1 µM | 0.0039 µM | 0.32 µM | 0.038 µM | – | – | – | – | – | –
3 | c1ccc(CNC[C@H]2CC[C@H](c3nnn4cnc5[nH]ccc5c34)CC2)cc1 [compound 193, 1-[trans-4-(7H-pyrrolo[3,2-e][1,2,3]triazolo[1,5-c]pyrimidin-1-yl)cyclohexyl]-N-benzylmethanamine] | 0.0055 µM | 0.0053 µM | 0.28 µM | 0.041 µM | – | – | – | – | – | –
4 | Clc1ccc(NC2CCC(c3nnn4cnc5[nH]ccc5c34)CC2)cc1 (stereo not shown) [compound 205, N-[4-(7H-Pyrrolo[3,2-e]r[1,2,3]triazolo[1,5-c]pyrimidin-1-yl)cyclohexyl]-4-chloroaniline] | 0.75 µM | 0.026 µM | > 1 µM | 0.25 µM | – | – | – | – | – | –
5 | O=C(Nc1ccc(F)cc1)[C@H]1CC[C@H](c2nnn3cnc4[nH]ccc4c23)CC1 [compound 206, trans-N-(4-Fluorophenyl)-4-(7H-pyrrolo[3,2-e][1,2,3]triazolo[1,5-c]pyrimidin-1-yl)cyclohexanecarboxamide] | > 1 µM | 0.27 µM | > 1 µM | > 1 µM | – | – | – | – | – | –
6 | O=C(NCc1ccc(F)cc1)[C@H]1CC[C@H](c2nnn3cnc4[nH]ccc4c23)CC1 [compound 207, trans-N-(4-fluorobenzyl)-4-(7H-pyrrolo[3,2-e][1,2,3]triazolo[1,5-c]pyrimidin-1-yl)cyclohexanecarboxamide] | > 1 µM | 0.009 µM | > 1 µM | 0.055 µM | – | – | – | – | – | –
7 | O=C(NCCc1ccc(F)cc1)[C@H]1CC[C@H](c2nnn3cnc4[nH]ccc4c23)CC1 [compound 208, trans-N-(4-fluorophenethyl)-4-(7H-pyrrolo[3,2-e][1,2,3]triazolo[1,5-c]pyrimidin-1-yl)cyclohexanecarboxamide] | 0.37 µM | 0.0028 µM | 0.36 µM | 0.033 µM | – | – | – | – | – | –
8 | O=C([C@H]1CC[C@H](c2nnn3cnc4[nH]ccc4c23)CC1)N1CC[C@H](F)C1 [compound 209, [trans-4-(7H-pyrrolo[3,2-e][1,2,3]triazolo[1,5-c]pyrimidin-1-yl)cyclohexyl][(S)-3-fluoropyrrolidin-1-yl]methanone] | > 1 µM | 0.061 µM | > 1 µM | 0.42 µM | – | – | – | – | – | –
9 | N#CCOc1ccc(CN2CCC(c3nnn4cnc5[nH]ccc5c34)CC2)cc1 [compound 213, 2-(4-{[4-(7H-pyrrolo[3,2-e][1,2,3]triazolo[1,5-c]pyrimidin-1-yl)piperidin-1-yl]methyl}phenoxy)acetonitrile] | – | – | – | – | > 1 µM | 0.024 µM | > 1 µM | 0.19 µM | – | –
10 | Clc1ccc(CN2CCC(c3nnn4cnc5[nH]ccc5c34)CC2)cn1 [compound 214, 1-{1-[(6-chloropyridin-3-yl)methyl]piperidin-4-yl}-7H-pyrrolo[3,2-e][1,2,3]triazolo[1,5-c]pyrimidine] | – | – | – | – | 0.29 µM | 0.0026 µM | 0.04 µM | 0.013 µM | – | –
11 | C(=C\c1ccco1)/CN1CCC(c2nnn3cnc4[nH]ccc4c23)CC1 [compound 215, (E)-1-{1-[3-(furan-2-yl)allyl]piperidin-4-yl}-7H-pyrrolo[3,2-e][1,2,3]triazolo[1,5-c]pyrimidine] | – | – | – | – | > 1 µM | 0.026 µM | > 1 µM | 0.25 µM | – | –
12 | CN1CCC(c2nnn3cnc4[nH]ccc4c23)CC1 [compound 216, 1-(1-methylpiperidin-4-yl)-7H-pyrrolo[3,2-e][1,2,3]triazolo[1,5-c]pyrimidine] | – | – | – | – | > 1 µM | 0.38 µM | > 1 µM | – | > 1 µM | –
13 | Clc1n[nH]c2ccc(CN3CCC(c4nnn5cnc6[nH]ccc6c45)CC3)cc12 [compound 217, 1-{1-[(3-chloro-1H-indazol-5-yl)methyl]piperidin-4-yl}-7H-pyrrolo[3,2-e][1,2,3]triazolo[1,5-c]pyrimidine] | – | – | – | – | > 1 µM | 0.08 µM | 0.38 µM | 0.18 µM | – | –
14 | c1cnc2cc(CN3CCC(c4nnn5cnc6[nH]ccc6c45)CC3)ccc2n1 [compound 218, 1-[1-(quinoxalin-6-ylmethyl)piperidin-4-yl]-7H-pyrrolo[3,2-e][1,2,3]triazolo[1,5-c]pyrimidine] | – | – | – | – | > 1 µM | 0.028 µM | > 1 µM | 0.14 µM | – | –
15 | c1cc2c(ncn3nnc(C4CCN(Cc5cocn5)CC4)c23)[nH]1 [compound 219, 4-{[4-(7H-pyrrolo[3,2-e][1,2,3]triazolo[1,5-c]pyrimidin-1-yl)piperidin-1-yl]methyl}oxazole] | – | – | – | – | 0.97 µM | 0.039 µM | 0.62 µM | 0.081 µM | – | –
16 | FC(F)Oc1ccc(CN2CCC(c3nnn4cnc5[nH]ccc5c34)CC2)cc1 [compound 220, 1-{1-[4-(difluoromethoxy)benzyl]piperidin-4-yl}-7H-pyrrolo[3,2-e][1,2,3]triazolo[1,5-c]pyrimidine] | – | – | – | – | > 1 µM | 0.013 µM | 0.62 µM | 0.086 µM | – | –
17 | c1cn(-c2ccc(CN3CCC(c4nnn5cnc6[nH]ccc6c45)CC3)cc2)cn1 [compound 221, 1-{1-[4-(1H-imidazol-1-yl)benzyl]piperidin-4-yl}-7H-pyrrolo[3,2-e][1,2,3]triazolo[1,5-c]pyrimidine] | – | – | – | – | > 1 µM | 0.018 µM | > 1 µM | 0.09 µM | – | –
18 | N#Cc1ccc(CN2CCC(c3nnn4cnc5[nH]ccc5c34)CC2)cc1F [compound 222, 4-{[4-(7H-pyrrolo[3,2-e][1,2,3]triazolo[1,5-c]pyrimidin-1-yl)piperidin-1-yl]methyl}-2-fluorobenzonitrile] | – | – | – | – | 0.77 µM | 0.0035 µM | 0.32 µM | 0.033 µM | – | –
19 | Fc1cc(C(F)(F)F)cc(F)c1CN1CCC(c2nnn3cnc4[nH]ccc4c23)CC1 [compound 224, 1-{1-[2,6-difluoro-4-(trifluoromethyl)benzyl]piperidin-4-yl}-7H-pyrrolo[3,2-e][1,2,3]triazolo[1,5-c]pyrimidine] | – | – | – | – | 0.95 µM | 0.002 µM | 0.43 µM | 0.012 µM | – | –
20 | O=C1COc2ccc(CN3CCC(c4nnn5cnc6[nH]ccc6c45)CC3)cc2N1 [compound 225, 6-{[4-(7H-pyrrolo[3,2-e][1,2,3]triazolo[1,5-c]pyrimidin-1-yl)piperidin-1-yl]methyl}-2H-benzo[b][1,4]oxazin-3(4H)-one] | – | – | – | – | > 1 µM | 0.021 µM | > 1 µM | 0.2 µM | – | –
21 | CN(CCC#N)c1ccc(CN2CCC(c3nnn4cnc5[nH]ccc5c34)CC2)cc1 [compound 226, 3-[(4-{[4-(7H-pyrrolo[3,2-e][1,2,3]triazolo[1,5-c]pyrimidin-1-yl)piperidin-1-yl]methyl}phenyl)(methyl)amino]propanenitrile] | – | – | – | – | > 1 µM | 0.28 µM | > 1 µM | > 1 µM | – | –
22 | FC1(F)Oc2ccc(CN3CCC(c4nnn5cnc6[nH]ccc6c45)CC3)cc2O1 [compound 227, 1-{1-[(2,2-Difluorobenzo[d][1,3]dioxol-5-yl)methyl]piperidin-4-yl}-7H-pyrrolo[3,2-e][1,2,3]triazolo[1,5-c]pyrimidine] | – | – | – | – | 0.57 µM | 0.0025 µM | 0.079 µM | 0.021 µM | – | –
23 | Clc1ccc(CN2CCC(c3nnn4cnc5[nH]ccc5c34)CC2)o1 [compound 228, 1-{1-[(5-chlorofuran-2-yl)methyl]piperidin-4-yl}-7H-pyrrolo[3,2-e][1,2,3]triazolo[1,5-c]pyrimidine] | – | – | – | – | 0.1 µM | 0.0016 µM | 0.17 µM | 0.0044 µM | – | –
24 | FC1(F)Oc2cccc(CN3CCC(c4nnn5cnc6[nH]ccc6c45)CC3)c2O1 [compound 229, 1-{1-[(2,2-difluorobenzo[d][1,3]dioxol-4-yl)methyl]piperidin-4-yl}-7H-pyrrolo[3,2-e][1,2,3]triazolo[1,5-c]pyrimidine] | – | – | – | – | > 1 µM | 0.039 µM | > 1 µM | 0.087 µM | – | –
25 | N#C/C(=C\N1CCC(c2nnn3cnc4[nH]ccc4c23)CC1)c1ccccc1 [compound 230, (Z)-3-[4-(7H-pyrrolo[3,2-e][1,2,3]triazolo[1,5-c]pyrimidin-1-yl)piperidin-1-yl]-2-phenylacrylonitrile] | – | – | – | – | > 1 µM | 0.035 µM | > 1 µM | 0.13 µM | – | –
26 | Clc1ccc(CN2CCC(c3nnn4cnc5[nH]ccc5c34)CC2)c(Cl)n1 [compound 231, 1-{1-[(2,6-dichloropyridin-3-yl)methyl]piperidin-4-yl}-7H-pyrrolo[3,2-e][1,2,3]triazolo[1,5-c]pyrimidine] | – | – | – | – | 0.61 µM | 0.0043 µM | 0.23 µM | 0.023 µM | – | –
27 | Brc1cc(CN2CCC(c3nnn4cnc5[nH]ccc5c34)CC2)sc1Br [compound 233, 1-{1-[(4,5-dibromothiophen-2-yl)methyl]piperidin-4-yl}-7H-pyrrolo[3,2-e][1,2,3]triazolo[1,5-c]pyrimidine] | – | – | – | – | > 1 µM | 0.021 µM | – | 0.071 µM | – | > 1 µM
28 | c1cc2c(ncn3nnc(C4CCN(Cc5cnc(N6CCOCC6)s5)CC4)c23)[nH]1 [compound 234, 4-(5-{[4-(7H-pyrrolo[3,2-e][1,2,3]triazolo[1,5-c]pyrimidin-1-yl)piperidin-1-yl]methyl}thiazol-2-yl)morpholine] | – | – | – | – | > 1 µM | 0.36 µM | > 1 µM | 0.88 µM | – | –
